Like-named read-outs stand apart in the source and are kept apart here.
Assays:
[1] = system: Candida albicans KMM 455; experiment: Antimicrobial assay, growth inhibition (optical density); assay type: cell-based; details: C. albicans, 18 h
Method: (§1) The Gram-positive bacterial Staphylococcus aureus ATCC 21027, Gram-negative bacterial Escherichia coli VKPM (B-7935), and yeast-like fungal Candida albicans KMM 455 strains were fermented on solid medium Mueller Hinton broth with agar (16.0 g/L) in a Petri dish at 37 °C for 24 h. The antimicrobial activity of the compound was tested at concentrations ranging from 100 µM and lower. The effect of the compound on bacterial growth was estimated as described by. Gentamicin and amphotericin B were used as positive controls against S. aureus, E. coli, and C. albicans, and a 1% dimethyl sulfoxide (DMSO) solution in PBS was used as a negative control. The optical density of the bacterial suspension after 18 h was measured at λ = 620 nm. The effect of the compound on biofilm formation for 18 h was tested using MTT reagent (Sigma-Aldrich, St. Louis, MO, USA) in accordance with. The optical density of the obtained solution was measured at λ = 570 nm. A Multiskan FS spectrophotometer (Thermo Scientific Inc., Beverly, MA, USA) was used for both assays. The results were calculated as percentages of the control data and presented as minimal concentrations reduced by 50% of growth or biofilm formation (MIC50).

[2] = system: Escherichia coli VKPM (B-7935); experiment: as above; assay type: cell-based
Method: as §1

[3] = system: Staphylococcus aureus ATCC 21027; experiment: as above; assay type: cell-based
Method: as §1

[4] = system: Candida albicans KMM 455; experiment: Biofilm formation assay (MTT); assay type: cell-based
Method: as §1

[5] = system: Escherichia coli VKPM (B-7935); experiment: Biofilm formation assay (MTT); assay type: cell-based
Method: as §1

[6] = system: Staphylococcus aureus ATCC 21027; experiment: Biofilm formation assay (MTT); assay type: cell-based
Method: as §1

[7] = system: H9c2 cardiomyocytes; experiment: Cell viability assay (MTT); assay type: cell-based, rat; details: for IC50: read-out: Cytotoxicity IC50
Excerpt: (§2) Rat cardiomyocyte H9c2 cells were kindly provided by Prof. Dr. Gunhild von Amsberg from the Martini-Klinik Prostate Cancer Center, University Hospital Hamburg-Eppendorf, Hamburg, Germany. The human HaCaT keratinocyte cell line was kindly provided by Prof. N. Fusenig (Cancer Research Centre, Heidelberg, Germany). Non-cancerous human breast epithelial MCF-10A cells were kindly provided by Dr. Irina Zhitnyak (N. N. Blokhin National Medical Research Center of Oncology, Moscow, Russia). Human breast cancer MCF-7 HTB-22 and MDA-MB-231 cells were obtained from the ATTC (Manassas, VA, USA).
(§3) H9c2 and HaCaT cells were cultured in DMEM with 10% fetal bovine serum and 1% penicillin/streptomycin (BioloT, St. Petersburg, Russia). MCF-7 and MDA-MB-231 cells were cultured in MEM (BioloT, St. Petersburg, Russia) with 10% fetal bovine serum (FBS) and 1% penicillin/streptomycin (BioloT, St. Petersburg, Russia). MCF 10A cells were cultured in DMEM F12 medium (BioloT, St. Petersburg, Russia) supplemented with 20% FBS, 20 ng/mL hrEGF (Sci-Store, Moscow, Russia), and 1% penicillin/streptomycin (BioloT, St. Petersburg, Russia). All cells were cultured at 37 °C in a humidified atmosphere containing 5% CO2.
(§4) H9c2 cells were seeded at a concentration of 3 × 10^3 cells/well. MCF-10A, MCF-7, and MDA-MB-231 cells were seeded at 5 × 10^3 cells/well, and HaCaT cells were seeded at 1 × 10^4 cells/well. The experiments were initiated after 24 h.
(§5) Compounds at concentrations up to 100 µM were added to the wells for 24h or 48 h, and the viability of the cells was measured using an MTT (3-(4,5-dimethylthiazol-2-yl)-2,5-diphenyltetrazolium bromide) assay, which was performed according to the manufacturer’s instructions (Sigma-Aldrich, Munich, Germany). […] DMSO was used as a control. The results are presented as percentages of the control data.

[8] = system: HaCaT keratinocytes; experiment: Cell viability assay (MTT); assay type: cell-based, human; details: for IC50: read-out: Cytotoxicity IC50
Excerpt: as §2, §3, §4, §5

[9] = system: MCF-10A breast epithelial cells; experiment: Cell viability assay (MTT); assay type: cell-based, human; details: MCF10A
Excerpt: as §2, §3, §4, §5

[10] = system: MCF-7 breast cancer cells; experiment: Cell viability assay (MTT); assay type: cell-based, human
Excerpt: as §2, §3, §4, §5

[11] = system: MDA-MB-231 breast cancer cells; experiment: Cell viability assay (MTT); assay type: cell-based, human; details: for IC50: read-out: Cytotoxicity IC50
Excerpt: as §2, §3, §4, §5

[12] = system: non-small cell lung cancer NCIH460 cells; details: cited from earlier work
[13] = system: breast cancer MCF-7 cells; details: cited from earlier work
[14] = system: CNS glioma SF-268 cells; details: cited from earlier work

Substance: asterredione [Compound 9]
- MIC50 [1]: >100 µM
- MIC50 ([2]; E. coli, 18 h): >100 µM
- effect on E. coli growth ([2]; at / up to 100 µM): did not affect
- MIC50 ([3]; S. aureus, 18 h): >100 µM
- effect on S. aureus growth ([3]; at / up to 100 µM): did not affect
- Biofilm formation, MIC50 ([4]; C. albicans, 18 h): >100 µM
- prevention of C. albicans biofilm formation ([4]; at 100 µM): 41.18 ± 4.91%
- Biofilm formation, MIC50 ([5]; E. coli, 18 h): >100 µM
- effect on E. coli biofilm formation ([5]; at / up to 100 µM): did not affect
- Biofilm formation, MIC50 ([6]; S. aureus, 18 h): >100 µM
- effect on S. aureus biofilm formation ([6]; at / up to 100 µM): did not affect
- decrease of viability ([7]; H9c2, 100 µM for 48 h): 38%
- cell viability ([7]; H9c2, 24 h, 1.0 µM): 101.1 ± 6.6 % of control
- cell viability ([7]; H9c2, 24 h, 10.0 µM): 101.7 ± 3.2 % of control
- cell viability ([7]; H9c2, 24 h, 100.0 µM): 73.1 ± 5.1 % of control
- IC50 ([7]; H9c2, 24 h): > 100 µM
- cell viability ([7]; H9c2, 48 h, 1.0 µM): 90.2 ± 7.1 % of control
- cell viability ([7]; H9c2, 48 h, 10.0 µM): 93.0 ± 10.4 % of control
- cell viability ([7]; H9c2, 48 h, 100.0 µM): 62.2 ± 10.4 % of control
- IC50 ([7]; H9c2, 48 h): > 100 µM
- toxicity ([7]; H9c2, at 10 µM): not toxic
- decrease of viability ([8]; 100 µM for 48 h): 23%
- cell viability ([8]; 24 h, 1.0 µM): 88.7 ± 3.0 % of control
- cell viability ([8]; 24 h, 10.0 µM): 79.2 ± 2.1 % of control
- cell viability ([8]; 24 h, 100.0 µM): 62.0 ± 6.9 % of control
- IC50 ([8]; 24 h): > 100 µM
- cell viability ([8]; 48 h, 1.0 µM): 99.5 ± 2.3 % of control
- cell viability ([8]; 48 h, 10.0 µM): 92.6 ± 11.2 % of control
- cell viability ([8]; 48 h, 100.0 µM): 77.1 ± 1.5 % of control
- IC50 ([8]; 48 h): > 100 µM
- toxicity ([8]; at 10 µM): not toxic
- cell viability ([9]; 24 h, 1.0 µM): 100.7 ± 0.9 % of control
- cell viability ([9]; 24 h, 10.0 µM): 97.5 ± 3.5 % of control
- cell viability ([9]; 24 h, 100.0 µM): 66.3 ± 3.6 % of control
- IC50 ([9]; 24 h, read-out: Cytotoxicity IC50): > 100 µM
- cell viability ([9]; 48 h, 1.0 µM): 96.7 ± 5.1 % of control
- cell viability ([9]; 48 h, 10.0 µM): 79.4 ± 4.3 % of control
- cell viability ([9]; 48 h, 100.0 µM): 61.5 ± 1.9 % of control
- IC50 ([9]; 48 h, read-out: Cytotoxicity IC50): > 100 µM
- IC50 ([9]; time not stated, read-out: half-maximal concentration (IC50), viability): > 100 µM
- IC50 ([10]; MCF-7, 24 h, read-out: Cytotoxicity IC50): 51.3 ± 2.6 µM
- cell viability ([10]; MCF-7, 48 h, 1.0 µM): 97.8 ± 1.1 % of control
- cell viability ([10]; MCF-7, 48 h, 10.0 µM): 78.6 ± 7.6 % of control
- cell viability ([10]; MCF-7, 48 h, 100.0 µM): 21.2 ± 6.6 % of control
- IC50 ([10]; MCF-7, 48 h, read-out: Cytotoxicity IC50): 55.1 ± 3.9 µM
- IC50 ([10]; MCF-7, time not stated, read-out: IC50, viability): ~50 µM
- cell viability ([11]; MDA-MB-231, 24 h, 1.0 µM): 96.3 ± 3.2 % of control
- cell viability ([11]; MDA-MB-231, 24 h, 10.0 µM): 106.3 ± 9.9 % of control
- cell viability ([11]; MDA-MB-231, 24 h, 100.0 µM): 82.5 ± 1.3 % of control
- IC50 ([11]; MDA-MB-231, 24 h): > 100 µM
- cell viability ([11]; MDA-MB-231, 48 h, 1.0 µM): 103.2 ± 0.9 % of control
- cell viability ([11]; MDA-MB-231, 48 h, 10.0 µM): 90.5 ± 2.7 % of control
- cell viability ([11]; MDA-MB-231, 48 h, 100.0 µM): 52.9 ± 3.4 % of control
- IC50 ([11]; MDA-MB-231, 48 h): ≥ 100 µM
- cytotoxic activity [12]: moderate cytotoxic activity
- cytotoxic activity [13]: moderate cytotoxic activity
- cytotoxic activity [14]: moderate cytotoxic activity
